Measured values as given in US20250122455A1, “INTEGRATED SYSTEM FOR MULTIPLE CULTIVATIONS OF A BIOLOGICAL AGENT AND METHODS OF USE THEREOF” (The Hong Kong Polytechnic University, priority 2023, published 2025).

How the values were obtained:
PAO1 static biofilms = assay: Alamar blue viability of static biofilms in the BDR device after antibiotic treatment; type: cell-based, Pseudomonas aeruginosa
Protocol: The PAO1 culture was diluted 100-fold in ABTGC media and inoculated at 100 μl into each channel of the microfluidic model using a syringe and needle. Then the model was placed in a 37° C. incubator for 20 mins to allow bacteria to colonize the bottom of the microwells. ABTGC media containing tobramycin (Sigma) with concentrations of 0, 0.625, 1.25, 2.5, 5 ug/ml were injected into each chamber for 12 hrs treatment. Alamar blue cell viability reagent (Thermo Fisher) was diluted with culture media to 10% and injected into chambers, then incubated at 37° C. until the color changed from blue to pink. The colored liquid was collected from the chamber for direct measurement of OD600 nm and fluorescence (Ex: 560 nm, Em: 590 nm) using a microplate reader (Thermo Scientific Varioskan LUX Multimode Microplate Reader).

P. aeruginosa biofilms = type: cell-based, Pseudomonas aeruginosa

Molecule | Fluorescence level of Alamar blue (PAO1 static biofilms; increasing tobramycin 0-5 ug/ml, 12 hrs treatment, without continuous flow, FIG. 22A) | Bacterial numbers (viable cell populations) (PAO1 static biofilms; increasing tobramycin, static biofilms, FIG. 22B) | Biofilm biomass change during EDA (P. aeruginosa biofilms)
NC[C@H]1O[C@H](O[C@H]2[C@H](O)[C@@H](O[C@H]3O[C@H](CO)[C@@H](O)[C@H](N)[C@H]3O)[C@H](N)C[C@@H]2N)[C@H](N)C[C@@H]1O [tobramycin] | decreased | reducing bacterial numbers | 
cellulase |  |  | continuous reduction of biofilm from top to bottom of the microwells
